Experimental data taken from patent publication US8147818B2, “Hepatitis C virus inhibitors” (Bristol-Myers Squibb Company, priority 2008, dated 2012).

The molecules below were run on HCV 1b-377-neo replicon cells (assay: HCV Replicon assay, HCV 1b-377-neo replicon cells). Conditions: Hepatitis C virus, read-out: EC50 against HCV 1b (Activity or Range).
Format: cell-based, HCV 1b genotype
Description: An HCV Replicon assay was utilized in the present disclosure, and was prepared, conducted and validated as described in commonly owned PCT/US2006/022197 and in O'Boyle et. al. Antimicrob Agents Chemother. 2005 April; 49(4):1346-53.
HCV 1b-377-neo replicon cells were used to test the currently described compound series as well as cells resistant to compound A containing a Y2065H mutation in NS5A (described in application PCT/US2006/022197). The compounds tested were determined to have more than 10-fold less inhibitory activity on cells containing the mutation than wild-type cells indicating a related mechanism of action between the two compound series. Thus, the compounds of the present disclosure can be effective to inhibit the function of the HCV NS5A protein and are understood to be as effective in combinations as previously described in application PCT/US2006/022197 and commonly owned WO/O4014852. Further, the compounds of the present disclosure can be effective against the HCV 1b genotype. It should also be understood that the compounds of the present disclosure can inhibit multiple genotypes of HCV. […] In one embodiment compounds of the present disclosure are active against the 1a, 1b, 2a, 2b, 3a, 4a, and 5a genotypes.

SMILES	EC50
COC(=O)N[C@@H](C)C(=O)N1CCC[C@H]1c1ncc(-c2ccc(-c3ccc4c(c3)CCCc3[nH]c([C@@H]5CCCN5C(=O)[C@H](C)NC(=O)OC)nc3-4)cc2F)[nH]1 [Example 22g.2]	0.02 nM

Same assay, conditions: Hepatitis C virus, read-out: EC50 against HCV 1b (Activity or Range), range class

SMILES	EC50
COC(=O)N[C@H](C(=O)N1CCC[C@H]1c1nc2c([nH]1)CCc1cc(-c3ccc(-c4[nH]c([C@@H]5CCCN5C(=O)[C@@H](NC(=O)OC)C(C)C)nc4CCC(F)(F)F)cc3)ccc1-2)C(C)C [Example 22r.1]	0.001 to 0.1 nM
CCN(CC)[C@@H](C(=O)N1CCC[C@H]1c1ncc(-c2ccc(-c3ccc4c(ccc5[nH]c([C@@H]6CC(F)(F)CN6C(=O)[C@@H](c6ccccc6)N(CC)CC)nc54)c3)cc2)[nH]1)c1ccccc1 [Example 22w.1a]	0.001 to 0.1 nM
CCN(CC)[C@@H](C(=O)N1CCC[C@H]1c1ncc(-c2ccc(-c3ccc4c(c3)CCCc3[nH]c([C@@H]5CCCN5C(=O)[C@@H](c5ccccc5)N(CC)CC)nc3-4)cc2)[nH]1)c1ccccc1 [Example 22.1]	0.001 to 0.1 nM
COC(=O)N[C@H](C(=O)N1CCC[C@H]1c1nc2c([nH]1)CCCc1cc(-c3ccc(-c4cnc([C@@H]5CCCN5C(=O)CN(C)C)[nH]4)cc3)ccc1-2)C(C)C [Example 24.a]	0.001 to 0.1 nM
COC(=O)N[C@H](C(=O)N1CCC[C@H]1c1ncc(-c2ccc(-c3ccc4c(c3)CCc3[nH]c([C@@H]5CCCN5C(=O)[C@@H](NC(=O)OC)C(C)C)nc3-4)cc2)[nH]1)C(C)C [Example 22r]	0.001 to 0.1 nM
COC(=O)N[C@H](C(=O)N1CC(F)(F)C[C@H]1c1ncc(-c2ccc(-c3ccc4c(ccc5[nH]c([C@@H]6CCCN6C(=O)[C@@H](NC(=O)OC)C(C)C)nc54)c3)cc2)[nH]1)C(C)C [Example 22w]	0.001 to 0.1 nM
CCN(CC)[C@@H](C(=O)N1CC(F)(F)C[C@H]1c1ncc(-c2ccc(-c3ccc4c(c3)CCc3[nH]c([C@@H]5CCCN5C(=O)[C@@H](c5ccccc5)N(CC)CC)nc3-4)cc2)[nH]1)c1ccccc1 [Example 22t.a]	0.001 to 0.1 nM
COC(=O)N[C@@H](C(=O)N1CCC[C@H]1c1ncc(-c2ccc(-c3ccc4c(c3)OCCc3[nH]c([C@@H]5CCCN5C(=O)[C@H](NC(=O)OC)c5ccccc5)nc3-4)cc2)[nH]1)c1ccccc1 [Example 22a.1]	0.001 to 0.1 nM
COC(=O)N[C@H](C(=O)N1[C@@H]2C[C@@H]2C[C@H]1c1nc2ccc3cc(-c4ccc5c(ccc6[nH]c([C@@H]7C[C@H]8C[C@H]8N7C(=O)[C@H](NC(=O)OC)c7ccccc7)nc65)c4)ccc3c2[nH]1)C(C)C [Example 24.2a]	0.001 to 0.1 nM
CCN(CC)[C@@H](C(=O)N1CCC[C@H]1c1ncc(-c2ccc(-c3ccc4c(c3)CCc3[nH]c([C@@H]5CC(F)(F)CN5C(=O)[C@@H](c5ccccc5)N(CC)CC)nc3-4)cc2)[nH]1)c1ccccc1 [Example 22t.1a]	0.001 to 0.1 nM
COC(=O)N[C@H](C(=O)N1CCC[C@H]1c1ncc(-c2ccc(-c3ccc4c(c3)CCCCc3[nH]c([C@@H]5CCCN5C(=O)[C@@H](NC(=O)OC)C(C)C)nc3-4)cc2)[nH]1)C(C)C [Example 22x.1]	0.001 to 0.1 nM
CCN(CC)[C@@H](C(=O)N1CCC[C@H]1c1ncc(-c2ccc(-c3ccc4c(c3)CCCCc3[nH]c([C@@H]5CCCN5C(=O)[C@@H](c5ccccc5)N(CC)CC)nc3-4)cc2)[nH]1)c1ccccc1 [Example 22x.1a]	0.001 to 0.1 nM
COC(=O)N[C@H](C(=O)N1CCC[C@H]1c1nc2c([nH]1)CCCc1cc(-c3ccc4c(c3)CCCc3[nH]c([C@@H]5CCCN5C(=O)[C@@H](NC(=O)OC)C(C)C)nc3-4)ccc1-2)C(C)C [Example 22k]	0.001 to 0.1 nM
COC(=O)N[C@H](C(=O)N1CCC[C@H]1c1ncc(-c2ccc(-c3ccc4c(c3)CCc3[nH]c([C@@H]5CCCN5C(=O)[C@@H](NC(=O)OC)C(C)C)nc3-4)cc2F)[nH]1)C(C)C [Example 22s]	0.001 to 0.1 nM
COC(=O)N[C@@H](C(=O)N(C)[C@@H](C)c1nc2c([nH]1)CCOc1cc(-c3ccc(-c4cnc([C@@H]5CCCN5C(=O)[C@H](NC(=O)OC)c5ccccc5)[nH]4)cc3)ccc1-2)c1ccccc1 [Example 22b.3]	0.001 to 0.1 nM
